Data as given in patent US8207172B2 (Bayer Intellectual Property GmbH, priority 2004, dated 2012).
Where a name gives a salt, the structure may show the parent alone.

Columns and labels:
[1] = system: A431 cells (human epidermoid carcinoma); test: In vitro tumor cell proliferation assay (Cell Titer-Glo luminescent cell viability), A431; type: cell-based; settings: A-431, 72 h, 72 hours of drug exposure, ATP luminescence readout, read-out: IC50, anti-proliferative activity (inhibition of cell proliferation)
How it was run: (§1)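 CellTiter-Glo luminescence (ATP content of metabolically active cells) after 72 h compound exposure at 37° C gave IC50s.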

[2] = system: BT474 (human breast carcinoma); test: In vitro tumor cell proliferation assay (Cell Titer-Glo luminescent cell viability), BT474; type: cell-based; settings: BT-474, 72 h, BT474 cells, 72 hours of drug exposure, ATP luminescence readout, read-out: IC50, anti-proliferative activity (inhibition of cell proliferation)
How it was run: as §1

Row | Compound | IC50 [1] [µM] | IC50 [2] [µM]
1 | NS(=O)(=O)OCCn1cc2c(n1)CCc1c-2sc2ncnc(Nc3ccc(OCc4cccc(F)c4)c(Cl)c3)c12 [Example 311, 2-[6-({3-chloro-4-[(3-fluorobenzyl)oxy]phenyl}amino)-4,5-dihydro-2H-pyrimido[5′,4′:4,5]thieno[2,3-e]indazol-2-yl]ethyl sulfamate] | ≤ 50 | ≤ 1
2 | COCCn1cc2c(n1)CCc1c-2sc2ncnc(Nc3ccc(OCc4cccc(F)c4)c(Cl)c3)c12 [Example 312, N-{3-chloro-4-[(3-fluorobenzyl)oxy]phenyl}-2-(2-methoxyethyl)-4,5-dihydro-2H-pyrimido[5′,4′:4,5]thieno[2,3-e]indazol-6-amine] | ≤ 50 | ≤ 5
3 | CC(C)(C)OC(=O)NCC(=O)OCCn1cc2c(n1)CCc1c-2sc2ncnc(Nc3ccc(OCc4cccc(F)c4)c(Cl)c3)c12 [Example 314, 2-[6-({3-chloro-4-[(3-fluorobenzyl)oxy]phenyl}amino)-4,5-dihydro-2H-pyrimido[5′,4′:4,5]thieno[2,3-e]indazol-2-yl]ethyl N-(tert-butoxycarbonyl)glycinate] | ≤ 5 | ≤ 1
4 | NCC(=O)OCCn1cc2c(n1)CCc1c-2sc2ncnc(Nc3ccc(OCc4cccc(F)c4)c(Cl)c3)c12 [Example 315, 2-[6-({3-chloro-4-[(3-fluorobenzyl)oxy]phenyl}amino)-4,5-dihydro-2H-pyrimido[5′,4′:4,5]thieno[2,3-e]indazol-2-yl]ethyl glycinate] | ≤ 5 | ≤ 1
5 | Cc1cc(Nc2ncnc3sc4c(c23)CCc2c-4cnn2CCN2CCN(C)CC2)ccc1O [Example 316, 2-methyl-4-({3-[2-(4-methylpiperazin-1-yl)ethyl]-4,5-dihydro-3H-pyrimido[5′,4′:4,5]thieno[2,3-e]indazol-6-yl}amino)phenol] | ≤ 50 | ≤ 50
6 | COc1cccc(COc2ccc(Nc3ncnc4sc5c(c34)CCc3nn(CCN4CCN(C)CC4)cc3-5)cc2Cl)c1 [Example 324, N-{3-chloro-4-[(3-methoxybenzyl)oxy]phenyl}-2-[2-(4-methylpiperazin-1-yl)ethyl]-4,5-dihydro-2H-pyrimido[5′,4′:4,5]thieno[2,3-e]indazol-6-amine] | ≤ 5 | ≤ 5
7 | CN1CCN(CCn2cc3c(n2)CCc2c-3sc3ncnc(Nc4ccc(OCc5ccc(F)cc5)c(Cl)c4)c23)CC1 [Example 326, N-{3-chloro-4-[(4-fluorobenzyl)oxy]phenyl}-2-[2-(4-methylpiperazin-1-yl)ethyl]-4,5-dihydro-2H-pyrimido[5′,4′:4,5]thieno[2,3-e]indazol-6-amine] | ≤ 5 | ≤ 5
8 | CN1CCN(CCn2cc3c(n2)CCc2c-3sc3ncnc(Nc4ccc5nn(Cc6cccc(F)c6)cc5c4)c23)CC1 [Example 327, N-[2-(3-fluorobenzyl)-2H-indazol-5-yl]-2-[2-(4-methylpiperazin-1-yl)ethyl]-4,5-dihydro-2H-pyrimido[5′,4′:4,5]thieno[2,3-e]indazol-6-amine] | ≤ 5 | ≤ 5
9 | CN1CCN(CCn2cc3c(n2)CCc2c-3sc3ncnc(Nc4ccc(OCc5cccc(C(F)(F)F)c5)c(Cl)c4)c23)CC1 [Example 328, N-(3-chloro-4-{[3-(trifluoromethyl)benzyl]oxy}phenyl)-2-[2-(4-methylpiperazin-1-yl)ethyl]-4,5-dihydro-2H-pyrimido[5′,4′:4,5]thieno[2,3-e]indazol-6-amine] | ≤ 5 | ≤ 5
10 | Cc1ccc(Nc2ncnc3sc4c(c23)CCc2nn(CCN3CCN(C)CC3)cc2-4)cc1O [Example 329, 2-methyl-5-({2-[2-(4-methylpiperazin-1-yl)ethyl]-4,5-dihydro-2H-pyrimido[5′,4′:4,5]thieno[2,3-e]indazol-6-yl}amino)phenol] | ≤ 5 | ≤ 5
11 | Cc1cccc(COc2ccc(Nc3ncnc4sc5c(c34)CCc3nn(CCN4CCN(C)CC4)cc3-5)cc2Cl)c1 [Example 330, N-{3-chloro-4-[(3-methylbenzyl)oxy]phenyl}-2-[2-(4 methylpiperazin-1-yl)ethyl]-4,5-dihydro-2H-pyrimido[5′,4′:4,5]thieno[2,3-e]indazol-6-amine] | ≤ 5 | ≤ 5

More lines, now with the values ahead:

Row | IC50 [1] [µM] | IC50 [2] [µM] | Compound
12 | ≤ 5 | ≤ 1 | OC1CCN(CCn2ncc3c2CCc2c-3sc3ncnc(Nc4ccc5c(cnn5Cc5cccc(F)c5)c4)c23)C1 (stereo not shown) [Example 299, 1-[2-(6-{[1-(3-fluorobenzyl)-1H-indazol-5-yl]amino}-4,5-dihydro-3H-pyrimido[5′,4′:4,5]thieno[2,3-e]indazol-3-yl)ethyl]pyrrolidin-3-ol]
13 | ≤ 5 | ≤ 1 | OCCNCCn1ncc2c1CCc1c-2sc2ncnc(Nc3ccc4c(cnn4Cc4cccc(F)c4)c3)c12 [Example 300, 2-{[2-(6-{[1-(3-fluorobenzyl)-1H-indazol-5-yl]amino}-4,5-dihydro-3H-pyrimido[5′,4′:4,5]thieno[2,3-e]indazol-3-yl)ethyl]amino}ethanol]
14 | ≤ 5 | ≤ 1 | OCCn1cc2c(n1)CCc1c-2sc2ncnc(Nc3ccc4c(cnn4Cc4ccccc4)c3)c12 [Example 302, 2-{6-[(1-benzyl-1H-indazol-5-yl)amino]-4,5-dihydro-2H-pyrimido[5′,4′:4,5]thieno[2,3-e]indazol-2-yl}ethanol]
15 | ≤ 50 | ≤ 1 | c1ccc(Cn2ncc3cc(Nc4ncnc5sc6c(c45)CCc4nn(CCN5CCOCC5)cc4-6)ccc32)cc1 [Example 304, N-(1-benzyl-1H-indazol-5-yl)-2-(2-morpholin-4-ylethyl)-4,5-dihydro-2H-pyrimido[5′,4′:4,5]thieno[2,3-e]indazol-6-amine]
16 | ≤ 5 | ≤ 1 | CCN1CCN(CCn2cc3c(n2)CCc2c-3sc3ncnc(Nc4ccc5c(cnn5Cc5ccccc5)c4)c23)CC1 [Example 305, N-(1-benzyl-1H-indazol-5-yl)-2-[2 (4-ethylpiperazin-1-yl)ethyl]-4,5-dihydro-2H-pyrimido[5′,4′:4,5]thieno[2,3-e]indazol-6-amine]
17 | ≤ 50 | ≤ 1 | CS(=O)(=O)CCNCCn1cc2c(n1)CCc1c-2sc2ncnc(Nc3ccc4c(cnn4Cc4ccccc4)c3)c12 [Example 307, N-(1-benzyl-1H-indazol-5-yl)-2-(2-{[2-(methylsulfonyl)ethyl]amino}ethyl)-4,5-dihydro-2H-pyrimido[5′,4′:4,5]thieno[2,3-e]indazol-6-amine]
18 | ≤ 50 | ≤ 1 | COCCN1CCN(CCn2cc3c(n2)CCc2c-3sc3ncnc(Nc4ccc5c(cnn5Cc5ccccc5)c4)c23)CC1 [Example 308, N-(1-benzyl-1H-indazol-5-yl)-2-{2-[4-(2-methoxyethyl)piperazin-1-yl]ethyl}-4,5-dihydro-2H-pyrimido[5′,4′:4,5]thieno[2,3-e]indazol-6-amine]
19 | ≤ 5 | ≤ 1 | c1ccc(Cn2ncc3cc(Nc4ncnc5sc6c(c45)CCc4n[nH]cc4-6)ccc32)cc1 [Example 309, N-(1-benzyl-1H-indazol-5-yl)-4,5-dihydro-2H-pyrimido[5′,4′:4,5]thieno[2,3-e]indazol-6-amine]
20 | ≤ 5 | ≤ 1 | OCCn1ncc2c1CCc1c-2sc2ncnc(Nc3ccc4c(cnn4Cc4ccccc4)c3)c12 [Example 310, 2-{6-[(1-benzyl-1H-indazol-5-yl)amino]-4,5-dihydro-3H-pyrimido[5′,4′:4,5]thieno[2,3-e]indazol-3-yl}ethanol]
21 | ≤ 5 | ≤ 1 | CN1CCN(CCn2ncc3c2CCc2c-3sc3ncnc(Nc4ccc(OCc5cccc(Cl)c5)c(Cl)c4)c23)CC1 [Example 317, N-{3-chloro-4-[(3-chlorobenzyl)oxy]phenyl}-3-[2-(4-methylpiperazin-1-yl)ethyl]-4,5-dihydro-3H-pyrimido[5′,4′:4,5]thieno[2,3-e]indazol-6-amine trifluoroacetate]
22 | ≤ 5 | ≤ 5 | COc1cccc(COc2ccc(Nc3ncnc4sc5c(c34)CCc3c-5cnn3CCN3CCN(C)CC3)cc2Cl)c1 [Example 318, N-{3-chloro-4-[(3-methoxybenzyl)oxy]phenyl}-3-[2-(4-methylpiperazin-1-yl)ethyl]-4,5-dihydro-3H-pyrimido[5′,4′:4,5]thieno[2,3-e]indazol-6-amine]
23 | ≤ 5 | ≤ 5 | CN1CCN(CCn2ncc3c2CCc2c-3sc3ncnc(Nc4ccc(OCc5cccc(C(F)(F)F)c5)c(Cl)c4)c23)CC1 [Example 319, N-(3-chloro-4-{[3-(trifluoromethyl)benzyl]oxy}phenyl)-3-[2-(4-methylpiperazin-1-yl)ethyl]-4,5-dihydro-3H-pyrimido[5′,4′:4,5]thieno[2,3-e]indazol-6-amine]
24 | ≤ 5 | ≤ 5 | Cc1cccc(COc2ccc(Nc3ncnc4sc5c(c34)CCc3c-5cnn3CCN3CCN(C)CC3)cc2Cl)c1 [Example 320, N-{3-chloro-4-[(3-methylbenzyl)oxy]phenyl}-3-(2-(4-methylpiperazin-1-yl)ethyl]-4,5-dihydro-3H-pyrimido[5′,4′:4,5]thieno[2,3-e]indazol-6-amine trifluoroacetate]
25 | ≤ 5 | ≤ 1 | CN1CCN(CCn2ncc3c2CCc2c-3sc3ncnc(Nc4ccc(OCc5ccc(F)cc5)c(Cl)c4)c23)CC1 [Example 322, N-{3-chloro-4-[(4-fluorobenzyl)oxy]phenyl}-3-[2-(4-methylpiperazin-1-yl)ethyl]-4,5-dihydro-3H-pyrimido[5′,4′:4,5]thieno[2,3-e]indazol-6-amine trifluoroacelate]
26 | ≤ 5 | ≤ 1 | Cc1cc(Nc2ncnc3sc4c(c23)CCc2c-4cnn2CCN2CCN(C)CC2)ccc1OCc1cccc(F)c1 [Example 323, N-{4-[(3-fluorobenzyl)oxy]-3-methylphenyl}-3-[2-(4-methylpiperazin-1-yl)ethyl]-4,5-dihydro-3H-pyrimido[5′,4′:4,5]thieno[2,3-e]indazol-6-amine]
